Key:
[1] = molecular target: T1, P2Y purinoceptor 12 (Homo sapiens, UniProt Q9H244); assay: Displacement of [3H]2MeSADP from human P2Y12 preincubated for 5 mins followed by [3H]2MeSADP addition and measured after 15 mins by scintillation counting method
[2] = Antiplatelet activity in human platelet rich plasma assessed as inhibition of ADP-induced platelet aggregation; type: functional, cell-based
[3] = test system: Homo sapiens; assay: Antiplatelet activity in human assessed as inhibition of ADP-induced platelet aggregation at 100 mg, po after 4 hrs; type: functional; design: scale not given: the % may be the effect or the level left
[4] = Half life in human plasma; type: ADME, cell-free
[5] = Antiplatelet activity in human platelet rich plasma assessed as inhibition of ADP-induced platelet aggregation preincubated for 5 mins followed by ADP addition and measured after 20 mins by microplate reader analysis; type: functional, cell-based
[6] = test system: Blood; assay: Ex vivo inhibition of platelet aggregation in Sprague-Dawley rat blood at 1 mg/kg, iv measured after 2 hrs; type: functional
[7] = test system: Blood; assay: Ex vivo inhibition of platelet aggregation in Sprague-Dawley rat blood at 10 mg/kg, po measured after 2 hrs; type: functional; design: scale not given: the % may be the effect or the level left
[8] = Antiplatelet activity in human platelet rich plasma assessed as inhibition of ADP-induced platelet aggregation preincubated for 2 mins followed by ADP addition and measured after 6 mins by Born method; type: functional, cell-based
[9] = Antiplatelet activity in human platelet rich plasma assessed as inhibition of ADP-induced platelet aggregation preincubated for 2 mins followed by ADP addition for 5 mins; type: functional, cell-based
[10] = molecular target: T1, P2Y purinoceptor 12; assay: Binding affinity to human P2Y12 expressed in astrocytoma cells; type: cell-based, Astrocyte
[11] = organism: Rattus norvegicus; assay: Anti-platelet aggregation activity in Sprague-Dawley rat assessed as reduction in bleeding time; type: functional
[12] = Lipophilicity, logP of compound; type: physicochemical; settings: octanol/water
[13] = Anti-platelet aggregation activity in rat platelet rich plasma assessed as inhibition of ADP-induced aggregation at 250 ug/ml pre-treated for 5 mins followed by ADP addition by hemocytometer analysis; type: functional; design: scale not given: the % may be the effect or the level left; settings: dose 250 µg/ml
[14] = Antiplatelet activity in human platelet rich plasma assessed as inhibition of CaCl2/fibrinogen-induced platelet aggregation preincubated for 5 mins followed by CaCl2/fibrinogen addition by microplate reader analysis; type: functional, cell-based
[15] = Anti-platelet aggregation activity in rat platelets assessed as inhibition of ADP-induced aggregation pre-treated for 5 mins followed by ADP addition and measured after 5 mins; type: functional, cell-based
[16] = Antiplatelet activity in human platelet rich plasma assessed as inhibition of thrombin-induced platelet aggregation at 3 uM preincubated for 2 mins followed by thrombin addition by turbidimetric method relative to control; type: functional; design: scale not given: the % may be the effect or the level left
[17] = Antiplatelet activity in rabbit platelet rich plasma assessed as inhibition of ADP-induced platelet aggregation preincubated for 5 mins followed by ADP addition and measured after 5 mins by turbidimetric method; type: functional, cell-based; settings: Oryctolagus cuniculus
[18] = Antiplatelet activity in human platelet rich plasma assessed as inhibition of collagen-induced platelet aggregation at 3 uM preincubated for 2 mins followed by collagen addition by turbidimetric method relative to control; type: functional; design: scale not given: the % may be the effect or the level left
[19] = Antiplatelet activity in human platelet rich plasma assessed as inhibition of ADP-induced platelet aggregation at 10 uM preincubated for 2 mins followed by ADP addition by turbidimetric method relative to control; type: functional; design: scale not given: the % may be the effect or the level left
[20] = molecular target: T1, P2Y purinoceptor 12; assay: Inhibition of 2-MeS-ADP induced P2Y12 (unknown origin) signalling expressed in CHO cells membrane incubated for 45 mins by 35S-GTPgammaS assay; type: functional, cell membranes
[21] = molecular target: T1, P2Y purinoceptor 12; assay: Displacement of 2-MeS[3H]-ADP from P2Y12 (unknown origin) expressed in HEK293 cells preincubated for 5 mins followed by 2-MeS[3H]-ADP addition and measured after 30 mins by Topcount beta counter analysis; type: cell-based
[22] = Antiplatelet activity in rabbit platelet rich plasma assessed as inhibition of ADP-induced platelet aggregation at 150.8 uM preincubated for 3 mins followed by ADP addition and measured after 5 mins relative to control; type: functional, Oryctolagus cuniculus; design: scale not given: the % may be the effect or the level left; settings: time 8 min
[23] = Antiplatelet activity in rat platelet rich plasma assessed as inhibition of ADP-induced platelet aggregation preincubated for 1 min followed by ADP addition and measured after 6 mins by Born method; type: functional, cell-based
[24] = test system: Blood; assay: Ex vivo inhibition of platelet aggregation in Sprague-Dawley rat blood at 3 mg/kg, po measured after 2 hrs; type: functional
[25] = test system: Blood; assay: Ex vivo inhibition of platelet aggregation in Sprague-Dawley rat blood at 3 mg/kg, iv measured after 30 mins; type: functional; settings: 0.5 h
[26] = Antiplatelet activity in human platelet rich plasma assessed as inhibition of ADP-induced platelet aggregation preincubated for 1 min followed by ADP addition and measured after 6 to 8 mins by Born method; type: functional, cell-based
[27] = molecular target: T1, P2Y purinoceptor 12; assay: Displacement of [3H]2MeSADP from P2Y12 (unknown origin)

T1 sequence (Q9H244 whole entry): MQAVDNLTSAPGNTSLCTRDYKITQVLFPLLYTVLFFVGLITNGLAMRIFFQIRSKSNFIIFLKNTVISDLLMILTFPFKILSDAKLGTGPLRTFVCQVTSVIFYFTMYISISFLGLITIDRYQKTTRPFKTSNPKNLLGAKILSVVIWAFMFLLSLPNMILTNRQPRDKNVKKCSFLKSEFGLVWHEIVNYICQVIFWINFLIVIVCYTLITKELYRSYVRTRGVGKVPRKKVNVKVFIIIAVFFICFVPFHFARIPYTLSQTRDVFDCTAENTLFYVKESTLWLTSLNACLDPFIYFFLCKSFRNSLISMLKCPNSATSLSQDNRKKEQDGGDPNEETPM

`CNc1cc2[nH]c(=O)n(-c3ccc(NC(=O)NS(=O)(=O)c4ccc(Cl)s4)cc3)c(=O)c2cc1F` [ELINOGREL] showed an IC50 [1] of 50 nM, an IC50 [2] of 10000 nM and an Activity [3] of 60%. It also gave a half-life [4] of 12 h.
For `CCNC(=O)[C@@H]1CCCN1C(=O)COc1cc(C(=O)N[C@@H](CCC(=O)O)C(=O)N2CCN(C(=O)OCC)CC2)nc2cccc(F)c12`, the IC50 [5] was 30 nM.
For `CCCC(=O)c1cnn(-c2cnc(NC(=O)c3cn(CC(=O)N4CCN(C)CC4)c4ccc(Cl)cc34)cn2)c1C`, the inhibition in vivo at 1 mg/kg [6] was 86.3% and the Activity [7] was 76%.
`CCOC(=O)N1CCN(C(=O)[C@H](CCC(=O)O)NC(=O)c2cc(O[C@H](C)C(=O)N3CCC[C@H]3C(=O)NC3CCCC3)c3ccc(C)cc3n2)CC1` showed an IC50 [5] of 30 nM.
With `CCOC(=O)N1CCN(C(=O)[C@H](CCC(=O)O)NC(=O)c2cc(OCC(=O)N3CCC[C@H]3C(=O)NC3CCCC3)n(-c3ccccc3)n2)CC1` the IC50 [8] was ≤ 11 nM.
For `CCCCOC(=O)N1CCN(C(=O)[C@H](CCP(=O)(O)O)NC(=O)c2cc(N3CC[C@H](OC)C3)nc(-c3ccccc3)n2)CC1`, the IC50 [9] was 1 nM.
Work on `Cc1cc(Nc2ccc(Nc3ccccc3)c(S(=O)(=O)O)c2)c2c(c1N)C(=O)c1ccccc1C2=O` yielded a Ki [10] of 51 nM.
With `CCOC(=O)N1CCN(C(=O)[C@H](CCC(=O)O)NC(=O)c2cc(OCC(=O)N3CCC[C@H]3C(=O)NC3CCC3)n(-c3cccc(F)c3)n2)CC1` the IC50 [8] was ≤ 11 nM.
In the case of `Cc1c(N)cccc1Nc1cc(S(=O)(=O)O)c(N)c2c1C(=O)c1ccccc1C2=O`, the Ki [10] is reported as 25 nM.
With `CCOC(=O)N1CCN(C(=O)[C@H](CCC(=O)O)NC(=O)c2cc(OCC(=O)N3CCC[C@H]3C(=O)NCC(F)(F)F)n(-c3ccccc3)n2)CC1` the IC50 [8] was ≤ 11 nM.
In the case of `CCC(C)C(N)C(=O)Oc1cc2c(s1)CCN(C(C(=O)C1CC1)c1ccccc1F)C2.Cl` (configuration not stated), the ED50 [11] is reported as 0.74 mg/kg.
In the case of `COC(=O)[C@H](c1ccccc1Cl)N1CCc2sccc2C1` [CLOPIDOGREL], the logP [12] is reported as 3.74.
`CC(=O)CCC1=C(C)C[C@@H](O[C@@H]2O[C@H](CO[C@@H]3OC[C@@H](O)[C@H](O)[C@H]3O)[C@@H](O)[C@H](O)[C@H]2O)CC1(C)C` showed an Activity [13] of 89.59%.
In the case of `CCCSc1nc(N[C@@H]2C[C@H]2c2ccccc2)c2nnn([C@@H]3C=C[C@H](OCC(=O)O)[C@@H](O)[C@H]3O)c2n1`, the IC50 [14] is reported as 2910 nM.
In the case of `CC(C)CCCC(C)[C@H]1CC[C@]2(C)[C@@H]1[C@H](O)C[C@@H]1[C@@]3(C)CC[C@H](O)C(C)(C)[C@@H]3[C@@H](O[C@@H]3O[C@H](CO)[C@@H](O)[C@H](O)[C@H]3O)C[C@]12C` (some centres not stated), the IC50 [15] is reported as 30900 nM.
`CC1CC(=O)NN=C1c1ccc(NC(=N)N)cc1` (configuration not stated) showed an Activity [16] of 100%, an IC50 [17] of 197 nM and an Activity [18] of 100%. It also gave an Activity [19] of 95.09%.
`CCCC(=O)c1cc(C#N)c(N(C(=O)C2CCNCC2)S(=O)(=O)CCc2ccccc2)nc1C` showed an IC50 [20] of 260 nM.
With `CCCSc1nc(N[C@@H]2C[C@H]2c2ccccc2)c2nnn([C@@H]3CC[C@H](O)[C@@H](O)[C@H]3O)c2n1` the IC50 [21] was 1350 nM.
`COc1cc2c(cc1OC)-c1c(C)c3ccc(OC)c(OC)c3c[n+]1CC2` [DEHYDROCORYDALINE] showed an Activity [22] of 73.48%.
With `CCCC(=O)c1cnn(C2CCC(NC(=O)c3cn(CC(=O)N4CCN(C)CC4)c4ccc(Cl)cc34)CC2)c1C` (configuration not stated) the IC50 [23] was 91 nM, the inhibition in vivo at 3 mg/kg [24] was 42.8% and the inhibition in vivo at 3 mg/kg [25] was 79%. The IC50 [26] was 270 nM.
Work on `C[C@H](CC[C@@H](C)C(C)(C)C)[C@H]1CC[C@H]2[C@@H]3C[C@H](OS(=O)(=O)O)[C@H]4C[C@@H](OS(=O)(=O)O)[C@H](OS(=O)(=O)O)C[C@]4(C)[C@H]3CC[C@]12C` yielded an IC50 [27] of 480 nM.
Work on `Cc1cc(C)cc(Nc2cc(S(=O)(=O)O)c(N)c3c2C(=O)c2ccccc2C3=O)c1` yielded a Ki [10] of 63 nM.
